Laboratory results taken from patent US20050215548A1 (Cyclacel Limited, priority 2002, published 2005).

How the values were obtained:
Type in all cases: cell-based, human
[1] = test system: key proteins in the HDM2 pathway; experiment: SDS-PAGE and immunoblotting of key proteins in the HDM2 pathway
AGS = experiment: Combination treatment with cisplatin or etoposide, MTT, AGS
From the text: It is well established that radiotherapy and most current forms of chemotherapy cause extensive genetic damage and induction of the p53-dependent apoptotic pathway, which determines the important role of this tumor suppressor protein in cancer therapy. HDM2, on the other hand, as a transcriptional product and negative regulator pf p53, would destabilise p53 and diminish its pro-apoptotic function. Inhibitors of the p53-HDM2 negative feedback loop (e.g. compounds disrupting the p53-HDM2 complex) are expected to synergise with cytotoxic agents for induction of p53 and subsequent apoptosis. […] Both chemotherapeutic agents were used in the concentration range of 100-0.19 μM.

[2] = test system: AGS, H1299, MCF7 or SJSA1 cells; experiment: Cell morphology (cell rounding); settings: five times IC50
From the text: Equal amounts of cell lysate were separated by SDS-PAGE and analysed by immunoblotting using the indicated antibodies. An estimation of the extent of cell rounding is indicated above each lane. The arrow indicates the position of a 85-kDa cleavage product of PARP, indicative of apoptosis. (B) The effect of compound 2 on the levels of the cell cycle proteins in AGS cells (wild-type 53). […] Equal amounts of cell lysate were separated by SDS-PAGE and analysed by immunoblotting using the indicated antibodies. An estimation of the extent of cell rounding is indicated above each lane. (C) The effect of negative control compound (refer Example 10), compound 2, cisplatin, and anisomycin on the levels of key proteins in MCF7 cells. […] Cisplatinum and anisomycin (a transcription inhibitor) treatments were with 50 μM or 37 μM, respectively. Cells were harvested at various time points; afterwards lysates were prepared and separated by SDS-PAGE and analysed by immunoblotting. The proteins detected are indicated. The extent of rounded or floating cells and the percentage viable cells were assessed. […] Equal amounts of cell lysate were separated by SDS-PAGE and analysed by immunoblotting using a range of antibodies. An estimation of the extent of cell rounding is indicated above each lane. […] SJSA1 cells were treated with 5 times [IC50] of compound 2 and collected at the indicated time points. Equal amounts of cell lysate were separated by SDS-PAGE and analysed by immunoblotting using a range of antibodies. An estimation of the extent of cell rounding is indicated above each lane.
Cells were treated with 5 times [IC50] of compound 2 and collected at various time points. The percentage of rounded cells was counted before cells were trypsinised and counted for cell viability using trypan blue.
Cells were lysed and equal amounts were analysed by SDS-polyacrylamide gel electrophoresis (SDS-PAGE) and immunoblotting. […] The reduction in E2F-1 levels correlated with reduction in E2F transcriptional activity as determined by an E2F-dependent luciferase reporter assay (refer Example 6).

Structure (SMILES): O=[N+]([O-])c1cc(S(=O)(=O)Nc2ccc(Cl)cc2)sc1Cl [Compound 2, 5-Chloro-4-nitrothiophene-2-sulfonic acid (4-chlorophenyl)-amide]
- HDM2 and E2F-1 protein levels ([1]; AGS, H1299, MCF7 or SJSA1 cells, five times the anti-proliferative IC50): rapid reduction in HDM2 and E2F-1 levels
- JNK phosphorylation ([1]; MCF7 cells): transient induction in JNK phosphorylation
- p38 MAPK pathway induction ([1]; MCF7 cells): no clear induction of the p38 MAPK pathway
- p53 level and p53 phosphorylation at serine 15 ([1]; compound 2: AGS, H1299, MCF7 or SJSA1 cells, etoposide or cisplatinum: AGS or MCF7 cells): no induction of p53 nor p53 phosphorylation at serine 15
- PARP cleavage / PARP levels ([1]; five times IC50, 85-kDa cleavage product marker for apoptosis): very rapid in H1299 cells but less so in AGS, MCF7 or SJSA1 cells
- IC50 of etoposide, fold lower in cells pre-treated with 2 (AGS; 2 added 6 hours before etoposide): 3.5 fold
- potency increase of cisplatin (AGS; 2 added prior to the treatment with cisplatin): 18.5 fold
- IC50 (AGS; Homo sapiens, MTT, 72 hours, Table 5, read-out: IC50, agent alone): 1100 nM
- cell rounding [2]: Rapid cell rounding was detected in all cell types tested
